From US20230364121A1 (priority 2020, published 2023)
Where two headings read alike, the source gives them in different places.

Experiments:
[1] = biological target: T1, SARS-Cov-1 nsp12:7L8:8 polymerase complex (Severe acute respiratory syndrome coronavirus, UniProt P0C6X7); format: biochemical
[2] = biological target: T1, SARS-Cov-1 nsp12:7L8:8 polymerase complex; assay: biochemical; format: biochemical
[3] = Bronchoalveolar lavage and plasma PK / safety study in healthy participants; format: in vivo, human
Experimental: Two cohorts of 8 healthy participants have been enrolled to receive AT-527 at 275 or 550 mg BID orally for 2.5 days. At 4 and 12 h following the last dose, each participant (4/timepoint/cohort) underwent a single bronchoalveolar lavage (BAL) via a standard bronchoscope. Intensive plasma PK sampling was also performed after the last dose. BAL and plasma samples were assayed for AT-273. AT-273 levels in lung epithelial lining fluid (ELF) were calculated by correcting for urea levels in the BAL and the corresponding plasma samples. Safety assessments included adverse events (AEs), vital signs, electrocardiograms (ECGs), and standard laboratory tests.

nsp12 NiRAN active-site = nsp12 NiRAN active-site (Severe acute respiratory syndrome coronavirus, UniProt P0C6X7); assay: biochemical; format: biochemical, SARS-CoV
[4] = tested on: SARS-CoV and SARS-CoV-2 RTCs; format: biochemical
nsp12:7:8 RTC = nsp12:7:8 RTC (Severe acute respiratory syndrome coronavirus, UniProt P0C6X7); format: biochemical, SARS-CoV
[5] = tested on: human coronavirus alpha-229E; assay: microbe, parasite or virus in culture; format: cell-based, HCoV-229E; conditions: for EC90: read-out: Virus Yield Reduction Assay EC90; for EC50: Huh-7, 120 h, read-out: Neutral Red Assay EC50
Huh7 cells = conditions: human
[6] = Cytotoxicity in mock infected BHK cells (MTT); format: cell-based, hamster; conditions: hamster
Experimental: (§1) To determine the cytotoxicity, cells were seeded at an initial density of 1×10^6 cells/mL in 96 well plates containing Minimum Essential Medium with Earles's salts (MEM-E), L-glutamine, 1 mM sodium pyruvate and 25 mg/L kanamycin, supplemented with 10% fetal bovine serum. Cell cultures were then incubated at 37° C. in a humidified 5% CO2 atmosphere in the absence or presence of serial dilutions of test compounds. Cell viability was determined by the MTT method.
(§2) Uninfected cells in the presence of serially diluted compound were used to assess the cytotoxicity of compounds.

HCoV [7] = assay: microbe, parasite or virus in culture; format: cell-based, human coronavirus
mock infected BHK cells = assay: Cytotoxicity in mock infected BHK cells (MTT); format: cell-based, hamster; conditions: Table 2B; MTT, 3 days
Experimental: as §1, §2

HCoV [8] = assay: microbe, parasite or virus in culture; format: cell-based, human coronavirus; remark: listed apart in the source
[9] = Cytotoxicity in mock infected MES-1 cells (MTT); format: cell-based; conditions: mock infected MES-1 cells, Table 3A
Experimental: as §1

[10] = tested on: mock infected MES-1 cells; assay: Cytotoxicity in mock infected MES-1 cells (MTT); format: cell-based; conditions: Table 3B, 3 days
Experimental: as §1

HCoV-229E = assay: Virus-induced CPE assay, HCoV-229E in BHK-21 cells (MTT); format: cell-based; conditions: Human coronavirus 229E, BHK-21, 72 h, BHK-21; dye staining; 3-day incubation; read-out: EC50
Experimental: In an initial screening, BHK-21 cells acutely infected with a seasonal human alpha coronavirus, HCoV-229E, were exposed to serial dilutions of Compound 1A.
BHK-21 cells: Test compounds were dissolved in DMSO at 100 mM and then diluted in Minimum Essential Medium with Earle's salts (MEM-E) containing 1 mM sodium pyruvate and 25 μg/mL kanamycin, supplemented with 10% FBS (growth medium) to final concentrations of 100, 20, 4 and 0.8 μM (two […] replica plates each). After BHK-21 cells were grown to confluency in 96-well plates, growth medium was replaced with fresh maintenance medium (growth medium with 1% inactivated FBS in place of 10% FBS) containing serially diluted test compound and HCoV-229E at a multiplicity of infection (MOI) of 0.01. Uninfected cells in the presence of serially diluted compound were used to assess the cytotoxicity of compounds. After a 3-day incubation at 37° C. in a humidified 5% CO2 atmosphere, cell viability was determined by the MTT method (Pauwels, R et al. J. Virol. Methods 20(4):309-321 (1988)).

[11] = AT-527 550 mg BID orally 2.5 days, 4 and 12 h after last dose
[12] = unidentified human coronavirus, Huh-7, 72 h
[13] = mock infected BHK cells, Table 2A, MTT, 3 days
[14] = unidentified human coronavirus, BHK-21, 72 h
[15] = unidentified human coronavirus, 72 h

C[C@@]1(F)[C@H](O)[C@@H](COP(=O)(O)OP(=O)(O)OP(=O)(O)O)O[C@H]1n1ccc(=O)[nH]c1=O [2′C-Me 2′F-UTP, reference compound]
incorporation efficacy compared to misincorporation at a U position [1]: around 40% | EC50 [2]: 20 to 40 µM

C[C@@]1(F)[C@H](O)[C@@H](CO)O[C@H]1n1cnc2c(=O)[nH]c(N)nc21 [AT-273]
Mean AT-273 level in lung ELF [3, 11]: ≥ 0.5 µM | Mean AT-273 level in plasma [3, 11]: ≥ 0.5 µM | correlation of ELF and plasma levels (r) ([3]; P<0.001): 0.86

C[C@@]1(F)[C@H](O)[C@@H](COP(=O)(O)OP(=O)(O)OP(=O)(O)O)O[C@H]1n1ccc(=O)[nH]c1=O [STP, 5′-triphosphate 2′-fluoro-2′-C-methyl uridine]
fold less efficient at blocking nsp8 labeling / UMPylation than AT-9010 (nsp12 NiRAN active-site): ~5 fold | IC50 (nsp12 NiRAN active-site; IC50 of nsp8 labeling against GTP (FIG. 13C)): 5 ± 0.8 µM | IC50 (nsp12 NiRAN active-site; IC50 of nsp8 labeling against UTP (FIG. 13C)): 8.2 ± 1.4 µM | IC50 (nsp12 NiRAN active-site; IC50 of nsp8 labeling, competition with UTP (FIG. 13A)): 4.6 ± 0.2 µM | competition with UTP ([4]; 5-fold higher concentrations than UTP): not competitive | competition with UTP ([4]; STP: UTP 20:1): not competitive | inhibition of RNA synthesis from poly(C) template (nsp12:7:8 RTC): virtually inactive | discrimination as substrate of the SARS-CoV RDRP [1]: > 250 fold

Cn1c[n+]([C@@H]2O[C@H](COP(=O)([O-])OP(=O)(O)OP(=O)(O)O)[C@@H](O)[C@H]2O)c2nc(N)[nH]c(=O)c21 [^m7GTP]
inhibition of nsp8 labeling / transfer of UTP to nsp8 (nsp12 NiRAN active-site): poorly inhibit

CCN(CC)CCCC(C)Nc1ccnc2cc(Cl)ccc12 (stereo not shown) [chloroquine, reference compound]
EC90 [5, 12]: < 0.05 µM | EC50 ([5]; unidentified human coronavirus): 8.1 µM | CC50 (Huh7 cells): 21 µM

CNc1nc(N)nc2c1ncn2[C@@H]1O[C@H](CO[P@@](=O)(N[C@@H](C)C(=O)OC(C)C)Oc2ccccc2)[C@@H](O)[C@@]1(C)F [drawing 232]
CC50 at 3 days [6, 13]: > 100 µM | EC50 (HCoV [7]; [14]): 1.6 µM

CNc1nc(N)nc2c1ncn2[C@@H]1O[C@H](CO[P@](=O)(N[C@@H](C)C(=O)OC(C)C)Oc2ccccc2)[C@@H](O)[C@@]1(C)F [drawing 233]
CC50 at 3 days [6, 13]: > 100 µM | EC50 (HCoV [7]; [14]): 2.5 µM

CC(C)OC(=O)[C@H](C)N[P@](=O)(OCC1O[C@@H](n2ccc(=O)[nH]c2=O)[C@](C)(F)[C@@H]1O)Oc1ccccc1 (stereo partly shown) [drawing 234]
CC50 at 3 days [6, 13]: > 100 µM | EC50 (HCoV [7]; [14]): > 100 µM

CC(C)(CO)C(=O)SCCOP(=O)(NCc1ccccc1)OC[C@H]1O[C@@H](n2cnc3c(=O)[nH]c(N)nc32)[C@](C)(O)[C@@H]1O (stereo partly shown) [drawing 236]
CC50 at 3 days [6, 13]: 65 µM | EC50 (HCoV [7]; [14]): 1.7 µM

CCC(CC)COC(=O)[C@H](C)N[P@](=O)(OC[C@H]1O[C@@](C#N)(c2ccc3c(N)ncnn23)[C@H](O)[C@@H]1O)Oc1ccccc1 [drawing 237]
CC50 at 3 days [6, 13]: > 100 µM | EC50 (HCoV [7]; [14]): 7.2 µM

CC(C)[C@H](N)C(=O)O[C@@H]1[C@@H](CO)O[C@@H](n2ccc(N)nc2=O)[C@]1(C)O [drawing 238]
CC50 at 3 days [6, 13]: > 100 µM | EC50 (HCoV [7]; [14]): > 100 µM

CNc1nc(N)nc2c1ncn2[C@@H]1O[C@H](CO[P@@](=O)(N[C@@H](C)C(=O)OC(C)C)Oc2ccccc2)[C@@H](O)[C@@]1(C)F [drawing 239]
CC50 (mock infected BHK cells): > 100 µM | EC50 (HCoV [7]): 2 µM

CNc1nc(N)nc2c1ncn2[C@@H]1O[C@H](CO[P@](=O)(N[C@@H](C)C(=O)OC(C)C)Oc2ccccc2)[C@@H](O)[C@@]1(C)F [drawing 240]
CC50 (mock infected BHK cells): > 100 µM | EC50 (HCoV [7]): 2.9 µM

CC(C)OC(=O)[C@H](C)N[P@](=O)(OCC1O[C@@H](n2ccc(=O)[nH]c2=O)[C@](C)(F)[C@@H]1O)Oc1ccccc1 (stereo partly shown) [drawing 241]
CC50 (mock infected BHK cells): > 100 µM | EC50 (HCoV [7]): > 100 µM

CC(C)(CO)C(=O)SCCOP(=O)(NCc1ccccc1)OC[C@H]1O[C@@H](n2cnc3c(=O)[nH]c(N)nc32)[C@](C)(O)[C@@H]1O (stereo partly shown) [drawing 243]
CC50 (mock infected BHK cells): 65 µM | EC50 (HCoV [7]): 1.9 µM

CCC(CC)COC(=O)[C@H](C)N[P@](=O)(OC[C@H]1O[C@@](C#N)(c2ccc3c(N)ncnn23)[C@H](O)[C@@H]1O)Oc1ccccc1 [drawing 244]
CC50 (mock infected BHK cells): > 100 µM | EC50 (HCoV [7]): 7 µM

CC(C)[C@H](N)C(=O)O[C@@H]1[C@@H](CO)O[C@@H](n2ccc(N)nc2=O)[C@]1(C)O [drawing 245]
CC50 (mock infected BHK cells): > 100 µM

CNc1nc(N)nc2c1ncn2[C@@H]1O[C@H](CO[P@@](=O)(N[C@@H](C)C(=O)OC(C)C)Oc2ccccc2)[C@@H](O)[C@@]1(C)F [drawing 246]
EC50 (HCoV [8]; [15]): 1.6 µM | CC50 at 3 days [9]: > 100 µM

CNc1nc(N)nc2c1ncn2[C@@H]1O[C@H](CO[P@](=O)(N[C@@H](C)C(=O)OC(C)C)Oc2ccccc2)[C@@H](O)[C@@]1(C)F [drawing 247]
EC50 (HCoV [8]; [15]): 2 µM | CC50 at 3 days [9]: > 100 µM

CC(C)OC(=O)[C@H](C)N[P@](=O)(OCC1O[C@@H](n2ccc(=O)[nH]c2=O)[C@](C)(F)[C@@H]1O)Oc1ccccc1 (stereo partly shown) [drawing 248]
EC50 (HCoV [8]; [15]): > 100 µM | CC50 at 3 days [9]: > 100 µM

CC(C)(CO)C(=O)SCCOP(=O)(NCc1ccccc1)OC[C@H]1O[C@@H](n2cnc3c(=O)[nH]c(N)nc32)[C@](C)(O)[C@@H]1O (stereo partly shown) [drawing 250]
EC50 (HCoV [8]; [15]): 1.9 µM | CC50 at 3 days [9]: 82 µM

CCC(CC)COC(=O)[C@H](C)N[P@](=O)(OC[C@H]1O[C@@](C#N)(c2ccc3c(N)ncnn23)[C@H](O)[C@@H]1O)Oc1ccccc1 [drawing 251]
EC50 (HCoV [8]; [15]): 6 µM | CC50 at 3 days [9]: > 100 µM

CC(C)[C@H](N)C(=O)O[C@@H]1[C@@H](CO)O[C@@H](n2ccc(N)nc2=O)[C@]1(C)O [drawing 252]
EC50 (HCoV [8]; [15]): > 100 µM | CC50 at 3 days [9]: > 100 µM

CNc1nc(N)nc2c1ncn2[C@@H]1O[C@H](CO[P@@](=O)(N[C@@H](C)C(=O)OC(C)C)Oc2ccccc2)[C@@H](O)[C@@]1(C)F [drawing 253]
EC50 (HCoV [8]): 2 µM | CC50 [10]: > 100 µM

CNc1nc(N)nc2c1ncn2[C@@H]1O[C@H](CO[P@](=O)(N[C@@H](C)C(=O)OC(C)C)Oc2ccccc2)[C@@H](O)[C@@]1(C)F [drawing 254]
EC50 (HCoV [8]): 2.2 µM | CC50 [10]: > 100 µM

CC(C)OC(=O)[C@H](C)N[P@](=O)(OCC1O[C@@H](n2ccc(=O)[nH]c2=O)[C@](C)(F)[C@@H]1O)Oc1ccccc1 (stereo partly shown) [drawing 255]
EC50 (HCoV [8]): > 100 µM | CC50 [10]: > 100 µM

CC(C)(CO)C(=O)SCCOP(=O)(NCc1ccccc1)OC[C@H]1O[C@@H](n2cnc3c(=O)[nH]c(N)nc32)[C@](C)(O)[C@@H]1O (stereo partly shown) [drawing 257]
EC50 (HCoV [8]): 1.7 µM | CC50 [10]: 82 µM

CCC(CC)COC(=O)[C@H](C)N[P@](=O)(OC[C@H]1O[C@@](C#N)(c2ccc3c(N)ncnn23)[C@H](O)[C@@H]1O)Oc1ccccc1 [drawing 258]
EC50 (HCoV [8]): 5.5 µM | CC50 [10]: > 100 µM

CC(C)[C@H](N)C(=O)O[C@@H]1[C@@H](CO)O[C@@H](n2ccc(N)nc2=O)[C@]1(C)O [drawing 259]
CC50 [10]: > 100 µM

CCN(CCO)CCCC(C)Nc1ccnc2cc(Cl)ccc12 (stereo not shown) [hydroxychloroquine, reference compound]
EC90 [5]: < 0.048 µM | EC90 [5, 12]: < 0.05 µM | EC50 ([5]; unidentified human coronavirus): 7.4 µM | CC50 (Huh7 cells): 26 µM

CC(C)OC(=O)[C@H](C)N[P@](=O)(OC[C@H]1O[C@@H](n2ccc(=O)[nH]c2=O)[C@](C)(F)[C@@H]1O)Oc1ccccc1 [sofosbuvir, reference compound]
fold less efficient at blocking nsp8 labeling / UMPylation than AT-9010 (nsp12 NiRAN active-site): about 5 fold | CC50 at 3 days ([6]; uninfected BHK-21 cells, BHK-21, Table 5): > 100 µM | EC50 (HCoV-229E): > 100 µM
